Laboratory results from patent publication US8809386B2, “Use of dynamin ring stabilizers” (Children's Medical Research Institute, priority 2009, dated 2014).

Legend:
[1] = tested on: mouse expressing ‘gain of function’ α-actinin 4 mutant protein; assay: Proteinuria in mouse expressing gain of function α-actinin 4 mutant; assay type: in vivo; settings: IP, 166 μg/100 g body weight, up to 6 hours after administration, FIG. 20
Experimental: FIG. […] Proteinuria was measured using mouse Albumin-specific ELISA and Creatinine Companion assay kits (Exocell and Bethyl Laboratories) following manufacturer's protocols.
Mice expressing a ‘gain of function’ mutation in the ACTN4 gene encoding for α-actinin 4 has been fully characterized (Kaplan et al. 2000; Henderson et al. 2008; Yao et al. 2004). These animals develop FP effacement and proteinuria due to “hyper bundling” activity of α-actinin 4 mutant that induces aggregation of stress fibers. Proteinuria develops at 4-6 weeks of age. The animals used in the present study were obtained from Dr. Martin Pollak, Brigham and Women's Hospital, Boston, Mass., USA. Proteinuric phenotype was confirmed by determination of urinary albumin and creatinine using mouse Albumin-specific ELISA and Creatinine Companion assay kits (Exocell and Bethyl Laboratories) following the manufacturer's protocols. The control animal was a litermate. Bis-T-23 was dissolved in 100% DMSO to make a 10 μg/μl stock solution, of which 5 μl was diluted in 200 μl of 1×PBS, and this was injected intraperitoneally (IP) into the test animal (166 μg/100 g body weight) at time 0 hr. Protein levels in the urine were measured every 2 hours post injection.

full length dynamin I = target: T1, full length dynamin I (UniProt Q05193); assay: Basal dynamin GTPase activity in the absence of PS liposomes or other template (ring stabilizer activity); assay type: biochemical, sheep; settings: 0.2 μM dyn1, 7 μM compound, 10 μM Gsn-F-actin complexes, FIG. 18
T1 construct: rows headed: basal rate of GTP hydrolysis of dynamin
T1 sequence (Q05193 1-864): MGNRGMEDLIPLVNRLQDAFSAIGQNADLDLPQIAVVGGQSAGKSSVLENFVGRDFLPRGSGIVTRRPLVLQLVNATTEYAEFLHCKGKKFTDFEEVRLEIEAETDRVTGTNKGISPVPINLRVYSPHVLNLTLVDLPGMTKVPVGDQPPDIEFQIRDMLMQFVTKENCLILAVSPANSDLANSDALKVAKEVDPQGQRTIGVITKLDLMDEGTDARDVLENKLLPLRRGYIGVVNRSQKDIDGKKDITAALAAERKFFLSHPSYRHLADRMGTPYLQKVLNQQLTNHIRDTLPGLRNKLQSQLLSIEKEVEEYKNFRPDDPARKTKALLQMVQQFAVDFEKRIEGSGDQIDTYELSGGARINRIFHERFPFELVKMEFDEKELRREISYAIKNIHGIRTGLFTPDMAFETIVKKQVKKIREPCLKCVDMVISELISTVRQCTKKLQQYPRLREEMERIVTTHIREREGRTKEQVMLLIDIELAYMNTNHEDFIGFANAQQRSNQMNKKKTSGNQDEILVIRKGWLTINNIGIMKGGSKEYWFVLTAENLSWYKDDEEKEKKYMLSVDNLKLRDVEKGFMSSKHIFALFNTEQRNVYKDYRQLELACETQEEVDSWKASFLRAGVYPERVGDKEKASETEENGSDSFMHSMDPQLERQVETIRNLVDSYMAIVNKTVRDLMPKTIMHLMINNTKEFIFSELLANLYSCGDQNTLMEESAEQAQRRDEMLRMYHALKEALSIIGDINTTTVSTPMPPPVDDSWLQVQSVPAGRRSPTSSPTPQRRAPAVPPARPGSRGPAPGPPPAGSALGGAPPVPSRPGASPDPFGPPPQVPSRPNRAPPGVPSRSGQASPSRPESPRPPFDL

dynamin I = assay: Dynamin disassembly centrifugation assay, helix preassembled on PS liposomes; assay type: biochemical; settings: FIG. 7
Experimental: Briefly, dynamin I was preassembled as a helix in the presence of PS liposomes for 30 min, after which the dynamin ring stabilizer Bis-T-23 or non-dynamin ring stabilizer dynole 34-2 (see Example 4) were added. The samples were then centrigued in a microfuge for 10 min to collect supernatans (Sup) or pellets. In this assay, helical dynamin is found primarily in the pellet. However, the addition of either NaCl (150 mM) or Mg/GTP (1 mM) is known to disassemble dynamin and it is found primarily in the supernatant (see FIG. 7). […] This unique mechanism of action explains why dynamin ring stabilizers can stimulate basal GTPase while inhibiting helical dynamin GTPase activity at the same time.

dynamin = assay: Electron microscopy of helical dynamin on PS liposomes; assay type: biochemical; settings: 5 μM, FIG. 8
Source text: FIGS. 8 (A) to (D) are electron micrographs showing Bis-T-23 prevents constriction or helical expansion of dynamin on PS liposomes in vitro. It stabilizes the dynamin helix, which loses its flexibility and forms uniform diameter rings, inhibiting dynamin ring disassembly.
A characteristic of helical dynamin is that the helix is a highly flexible structure. Upon GTP hydrolysis it is able to rapidly reduce its diameter (constriction) while also expanding in length (helical expansion) (Stowell et al. 1999; Chen et al. 2004; Roux et al. 2006). This is thought to be a potential mechanism utilized for the fission of the necks of newly budded endocytic vesicles in cells (Roux et al. 2006). The highly flexible nature of helical dynamin was confirmed by EM analysis of dynamin bound to phosphatidylserine liposomes in the absence of GTP or GDP (FIG. 8). Dynamin mixed with PS liposomes formed a helix with specific characteristics (FIGS. 8A and C): the individual loops of the helix were highly varied in diameter, formed at different angles relative to the underlying lipid, and the spacing between loops was highly variable. […] Bis-T-23 bound dynamin appeared similar to previous reports of GTPγS-bound dynamin on lipid nanotubes (Stowell et al. 1999).

cultured mouse podocytes = assay: Actin cytoskeleton and focal adhesions in cultured podocytes (rhodamine-phalloidin, anti-paxillin); assay type: cell-based; settings: 10 min after addition
Experimental: FIG. 19 is a photograph showing the effects of Bis-T-23 on the actin cytoskeleton in podocytes. Cells were stained using rhodamine-phalloidin for F-actin (left column) and anti-paxillin monoclonal antibody (centre column). The merged staining is shown on the right column.
To determine if the in vitro action of the dynamin ring stabilizers also occurs in cells, the effect of Bis-T-23 on the actin cytoskeleton in cultured mouse podocytes was tested (FIG. 19). […] Thus, the observed increase in stress fibers is unlikely due to inhibition of endocytosis.

[2] = tested on: truncated dynamin I construct known as GG2; assay: Basal GTPase activity of assembly-incompetent dynamin construct GG2; assay type: biochemical; settings: FIG. 5
Source text: FIG. 5 is a graph showing the basal GTPase activity of the truncated dynamin I construct known as GG2, containing only the GTPase domain linked to a small part of the GED domain (Chappie et al 2009). Unlike full length dynamin this construct is known to be unable to self-assemble or to form rings. Bis-T-22 and -23 and imminodyn-22 have no effect on the basal activity of this assembly-incompetent construct.
To verify that ring stabilizers require dynamin oligomerisation, a recombinant form of dynamin, called GG-2, which is dimeric yet is unable to self-associate into higher order oligomers (Chappie et al 2009) was tested. Ring stabilizers are unable to stimulate the basal activity of such constructs (FIG. 5).

## N#CC(=Cc1cc(O)c(O)c(O)c1)C(=O)NCCCNC(=O)C(C#N)=Cc1cc(O)c(O)c(O)c1 [Bis-T-23, 2-cyano-N-{3-[2-cyano-3-(3,4,5-trihydroxyphenyl)-acryloylamino]-propyl}-3-(3,4,5-trihydroxyphenyl)-acrylamide]
[1]
  proteinuria (urinary albumin and creatinine): decrease in proteinuria to wild-type levels
Full length dynamin I
  basal rate of GTP hydrolysis of dynamin: increased the rate of basal dynamin GTP hydrolysis to a similar level to addition of Gsn-F-actin complexes
Dynamin I
  disassembly of helical dynamin by NaCl (150 mM) or Mg/GTP (1 mM): reduce the disassembly of helical dynamin
dynamin
  shape of dynamin helix on PS liposomes: drastically altered the helical shape
Cultured mouse podocytes; FIG. 19
  stress fibers in podocytes: dramatic increase in well-defined stress fibers
Cultured mouse podocytes; FIG. 19B
  number of focal adhesions (paxillin staining): dramatic increase in the number of focal adhesions
[2]
  effect on basal GTPase activity of GG2: no effect
